Data from patent publication US10016409B2, “Method for improving interstitial flow” (priority 2012, dated 2018).
“And” between values parts separate entries of the source, which are not always exact repeats. Identical values can stand only once.

What was measured:
Tg-SwDI mice [1] = experiment: Cerebral artery reactivity to CO2 supply (vascular pulsation driving force) in Tg-SwDI mice; type: in vivo; details: vs ordinary feed group
Excerpt: In brain interstitial flow in a central nervous system, vascular wall motion caused by vascular pulsation of artery serves as a driving force so that harmful proteins are excreted (see Mechanisms to explain the reverse perivascular transport of solutes out of the brain. J Theor Biol. 2006 Feb. 21; 238(4): 962-74), Dilation of artery in vascular pulsation is caused by an increased blood pressure in artery due to pulsation of heart, and a decrease in dilation ability of artery attenuates vascular wall motion, and also reduces the interstitial flow. […] The degree of vascular elasticity in cerebral artery can be evaluated by using reactivity with a change in the concentration of blood carbon dioxide. Specifically, cerebral artery whose vascular elasticity and vascular pulsation driving force are maintained, has the ability of sufficiently dilating the vessel diameter afer an increase in the concentration of blood carbon dioxide, and maintains excretion ability for harmful proteins through h interstitial flow. On the other hand, cerebral artery whose vascular elasticity and vascular pulsation driving force are decreased, loses the ability of sufficiently dilating the vessel diameter in response to an increase in the concentration of blood carbon dioxide, and has its escretion ability for harmful proteins impaired. […]

Tg-SwDI mice [2] = experiment: Drainage of injected fluorescent label Aβ1-40 through perivascular interstitial fluid pathway; type: in vivo; details: single images FIGS. 8 to 10, 30 minutes after injection into striate, cilostazol-containing feed group
Excerpt: To verify interstitial flow improvement by cilostazol, harmful protein drainage facilitation by cilostazol was examined by using a cerebral amyloid angiopathy model. Totally unlike a drainage system through a specific receptor or antigen-antibody reaction, drainage of harmful proteins through the interstitial flow is a general drainage system irrespective of the type and amount of proteins, and Aβ in these examples is merely an example of intracerebral harmful proteins for which the interstitial flow is improved so that drainage is facilitated.
After 15 months from the start of breeding, with respect to Tg-SwDI mice (n=4) of a group administered with cilostazol-containing feed for 13.5 months and Tg-SwDI mice (n=3) of the ordinary feed administered group, Tg-SwDI mice were placed at the prone position under inhalation anesthesia using 1.5% isoflurane, midline incision of scalp was performed, and then, by using a 32 G micropipet, such that a fluorescent label Aβ1-40 was injected for 30 seconds in the manner of stereotaxy into the striate of Tg-SwDI mice (a front part of 0.98 mm and a side part of 1.5 mm in bregma) as indicated by the arrow in FIG. 7. The depth from the brain surface to the injection site of the striate was 3.0 mm, and the fluorescent label Aβ1-40 was purchased from AnaSpec (San Jose, Calif., USA). […]

Tg-SwDI mice [3] = experiment: Cerebrovascular diameter increase under acetylcholine administration to the brain surface; type: in vivo; details: acetylcholine 100 μM perfused, vs ordinary feed
Excerpt: In the brain interstitial flow in a central nervous system, vascular wall motion due to artery vascular pulsation serves as a driving force so that harmful proteins are excreted. Dilation of artery in vascular pulsation occurs when the blood pressure in artery increases due to pulsation of heart. A decrease in dilation ability of artery attenuates vascular wall motion, and reduces the interstitial flow accordingly. In the presence of aged mice and cerebral amyloid angiopathy, vascular elasticity (flexibility) of cerebral artery considerably decreases, and vascular wall motion attenuates. Thus, the ability of excretion of harmful proteins deteriorates. In this study, the influence of cilostazol administration on vascular elasticity ability under acetylcholine administration was examined.
It is known that acetylcholine has the physiological action of improving vascular elasticity. […]
In a manner similar to section (1) regarding vascular elasticity enhancement by cilostazol discussed above, model mice (Tg-SwDI mice) (Davis et al, 2004) showing pathological changes, especially cerebral amyloid angiopathy, were used. […] Cerebral blood vessels were visualized with FITC-dextran, and the rate of change in vessel diameter from a time before administration to 3 minutes after the start of administration was analyzed. […]

MCI patients = experiment: Clinical record analysis, MMSE change in MCI patients (MMSE 22 to 26) under donepezil hydrochloride oral administration; type: in vivo, human; details: additional oral cilostazol in MCI patients under donepezil hydrochloride
Excerpt: Patients subjected to oral administration of donepezil hydrochloride, having an observation period of one or more years before the MMSE test date, and having first MMSE scores less than or equal to 26 were picked up from a clinical record. Among the patients, patients recorded to have been consecutively administered with cilostazol for 6 months or more in the observation period were classified as a donepezil hydrochloride and cilostazol combined use group (69 cases), and patients recorded to have experienced no cilostazol oral administration were classified as a donepezil hydrochloride single use group (87 cases). Cilostazol was oral-administered at a dosage of 50 to 200 mg/day in the morning and evening, and donepezil hydrochloride was administered at a dosage of 5 mg/day once in a day. Among the patients, patients with MMSE scores greater than or equal to 22 and less than or equal to 26 were extracted as an MCI patient group. Then, 36 cases (16 males and 20 females, average age: 78.4 years old) of the donepezil hydrochloride single use group (hereinafter referred to as a single use group) and 34 cases (15 males and 19 females, average age: 77.2 years old) of the donepezil hydrochloride and cilostazol combined use group (hereinafter referred to as combined use group) were found. The average dosage of cilostazol in the combined use group was 121 mg/day. […] Measurement of MMSE was conducted at least twice in the observation period, and the first and last test results were selected for analysis.

Alzheimer's patients = details: cilostazol alone in Alzheimer's patients, Non-patent Document 10; cited from earlier work

O=C1CCc2cc(OCCCCc3nnnn3C3CCCCC3)ccc2N1 [cilostazol, 6-[4-(1-cyclohexyl-1H-tetrazole-5-yl)butoxy]3,4-dihydrocarbostyril]
cerebral artery vasodilation ability with the CO2 supply (relative increase in cerebrovascular diameter) (Tg-SwDI mice [1]; 5% CO2, cilostazol-containing feed for 13.5 months, age 15 months, FIG. 5): significantly enhances cerebral artery vasodilation ability
cerebral artery vasodilation ability (relative increase rate of the vessel diameter) by the CO2 supply (Tg-SwDI mice [1]; cilostazol-containing feed for 8 months, age 12 months, FIG. 6): significantly increases the cerebral artery vasodilation ability
distance of fluorescent label Aβ1-40 accumulation site of a leptomeninges vessel from the injection site (Tg-SwDI mice [2]): 2922 μm and 3422 μm and 3507 μm
relative increase in cerebrovascular diameter under acetylcholine administration (Tg-SwDI mice [3]; cilostazol-containing feed for 8 months, age 12 months, FIG. 23): dilated
relative increase in cerebrovascular diameter under acetylcholine administration (Tg-SwDI mice [3]; cilostazol-containing feed for 13.5 months, age 15 months, FIG. 24): dilated
reduction of the annual decrease rate of MMSE scores (MCI patients): about 80%
mini-mental state examination (MMSE) (Alzheimer's patients): no change is observed
